According to patent publication US7759078B2, “Diagnosis and treatment of cancer” (priority 2003, dated 2010):

Legend:
[1] = test system: voltage gated Na+ channel in MAT-LyLu rat prostatic cancer cell line; test: current recordings of VGSC functional expression in MAT-LyLu cells after 24 h incubation; assay type: cell-based
Experimental: FIG. 9. (A) Current recordings from the MAT-LyLu rat prostatic cancer cell line elicited by depolarising the membrane from a holding potential of −100 mV to 0 mV following 24 h incubation in 0% FBS, 100 ng/ml EGF and 1 μM AG1478. […] (B) Histograms showing mean peak Na^+ current density ± standard error following 24 h incubation in 0% FBS, 100 ng/ml EGF, 1 μM AG1478 and EGF receptor antibody (1 μg/ml). Statistical significance is indicated as **=p<0.01 and ***=p<0.001, respectively.
Epidermal growth factor (EGF) upregulates VGSC functional expression. […] This effect is blocked by co-application of EGF receptor kinase inhibitor (AG1478; Calbiochem, San Diego, Calif., USA). Application of EGF receptor antibody (Oncogene, Cambridge, Mass., USA) also reduces the basal VGSC current implying that the phenomenon occurs endogenously.

MAT-LyLu and PC-3 cells = details: cited from earlier work
MAT-LyLu cells = details: cited from earlier work
[2] = test system: PN1 expression in PC12 cells; details: cited from earlier work

## COc1cc2ncnc(Nc3cccc(Cl)c3)c2cc1OC [AG1478]
[1]; co-application with EGF, 1 μM AG1478, 24 h
  effect on EGF potentiation of functional VGSC expression: blocked

## NC1=N[C@H](O)[C@H]2[C@H]3O[C@]4(O)O[C@@H]([C@@H](O)[C@@]2(N1)[C@@H]4O)[C@]3(O)CO [TTX, tetrodotoxin]
MAT-LyLu and PC-3 cells
  cells' invasion in vitro: significantly reduced
  reduction of the cells' invasive potential: ~30%
MAT-LyLu cells
  effect on cell morphology: retract their processes and become compact

## Epidermal growth factor [EGF]
[1]; 24 h incubation, 100 ng/ml EGF
  VGSC functional expression (peak Na+ current density): upregulates

## nerve growth factor [NGF]
[2]
  PN1 expression: upregulates
